Laboratory results from ChEMBL document CHEMBL1158551, “Click reaction synthesis of carbohydrate derivatives from ristocetin aglycon with antibacterial and antiviral activity” (Bioorg Med Chem Lett, 2010).
pEC50: −log10 of the molar value. ≈ marks a conversion by molar mass, not a printed value. Calls of active or inactive are those of the source. No cut-off for these calls is given here.

Legend:
[1] = test system: Influenza A virus; assay: Antiviral activity against influenza A virus H1N1 assessed as cell viability by cell based MTS assay; assay type: functional, organism-based
[2] = test system: Influenza A virus; assay: Antiviral activity against influenza A virus H1N1 assessed as inhibition of viral induced cytopathic effect; assay type: functional, organism-based
[3] = test system: Staphylococcus aureus; assay: Antibacterial activity against methicillin-[…] Staphylococcus aureus ATCC 33591 by broth microdilution method; assay type: functional
[4] = test system: Bacillus subtilis; assay: Antibacterial activity against Bacillus subtilis ATCC 6633 by broth microdilution method; assay type: functional
[5] = test system: Staphylococcus epidermidis; assay: Antibacterial activity against Staphylococcus epidermidis by broth microdilution method; assay type: functional
[6] = test system: Enterococcus faecalis; assay: Antibacterial activity against vancomycin-resistant and teicoplanin-sensitive Enterococcus faecalis ATCC 5129 expressing VanB gene by broth microdilution method; assay type: functional
[7] = test system: Platelet; assay: Inhibition of ristocetin-induced platelet aggregation at 0.1 mg/ml; assay type: functional, cell-based
[8] = test system: Enterococcus faecalis; assay: Antibacterial activity against vancomycin and teicoplanin-sensitive Enterococcus faecalis ATCC 29212 by broth microdilution method; assay type: functional
[9] = test system: Staphylococcus epidermidis; assay: Antibacterial activity against biofilm positive Staphylococcus epidermidis ATCC 35984; assay type: functional
[10] = test system: Staphylococcus aureus; assay: Antibacterial activity against methicillin-[…] Staphylococcus aureus ATCC 29213 by broth microdilution method; assay type: functional
[11] = test system: Influenza B virus; assay: Antiviral activity against influenza B virus assessed as inhibition of viral induced cytopathic effect; assay type: functional, organism-based
[12] = test system: Influenza A virus; assay: Antiviral activity against Influenza A virus H3N2 assessed as cell viability by cell based MTS assay; assay type: functional, organism-based
[13] = test system: Influenza B virus; assay: Antiviral activity against influenza B virus assessed as cell viability by cell based MTS assay; assay type: functional, organism-based
[14] = test system: Influenza A virus; assay: Antiviral activity against Influenza A virus H3N2 assessed as inhibition of viral induced cytopathic effect; assay type: functional, organism-based
[15] = test system: Enterococcus faecalis; assay: Antibacterial activity against vancomycin and teicoplanin-resistant Enterococcus faecalis 15376 expressing VanA gene by broth microdilution method; assay type: functional

Molecule `COC(=O)[C@@H]1NC(=O)[C@H]2NC(=O)[C@H](NC(=O)[C@@H]3NC(=O)[C@H]4NC(=O)[C@H](NC(=O)[C@H](n5cc(CO[C@H]6O[C@H](CO)[C@@H](O)[C@H](O)[C@@H]6O)nn5)c5ccc(O)c(c5)Oc5cc4cc(O)c5C)[C@H](O)c4ccc(cc4)Oc4cc3cc(c4O)Oc3ccc(cc3)[C@H]2O)c2ccc(O)c(c2)-c2c(O)cc(O)cc21` has a pEC50 [1] of 4.66, a pEC50 [2] of 5.00 and an MBC [3] of 16 µg/mL (≈ 11.3 µM). It also gave an MIC [3] of 4 µg/mL (≈ 2.82 µM), an MBC [4] of 4 µg/mL (≈ 2.82 µM) and an MIC [4] of 4 µg/mL (≈ 2.82 µM). For the same molecule, the MBC [5] was 8 µg/mL (≈ 5.64 µM), the MIC [5] was 4 µg/mL (≈ 2.82 µM) and the MBC [6] was 256 µg/mL (≈ 180 µM). For the same molecule, the MIC [6] was 16 µg/mL (≈ 11.3 µM), the inhibition [7] was “inactive” and the MBC [8] was 256 µg/mL (≈ 180 µM). It also gave an MIC [8] of 8 µg/mL (≈ 5.64 µM), an MBC [9] of 8 µg/mL (≈ 5.64 µM) and an MIC [9] of 4 µg/mL (≈ 2.82 µM). It also gave an MIC [10] of 2 µg/mL (≈ 1.41 µM), a pEC50 [11] of no more than 4.35 and a pEC50 [12] of no more than 4.34. The pEC50 [13] was no more than 4.30, the pEC50 [14] was no more than 4.35 and the MBC [15] was 64 µg/mL (≈ 45.1 µM). It also gave an MIC [15] of 16 µg/mL (≈ 11.3 µM).

Work on `COC(=O)[C@@H]1NC(=O)[C@H]2NC(=O)[C@H](NC(=O)[C@@H]3NC(=O)[C@H]4NC(=O)[C@H](NC(=O)[C@H](n5cc(CO[C@H]6O[C@H](COC(C)=O)[C@@H](O[C@H]7O[C@H](COC(C)=O)[C@@H](OC(C)=O)[C@H](OC(C)=O)[C@H]7OC(C)=O)[C@H](OC(C)=O)[C@H]6OC(C)=O)nn5)c5ccc(O)c(c5)Oc5cc4cc(O)c5C)[C@H](O)c4ccc(cc4)Oc4cc3cc(c4O)Oc3ccc(cc3)[C@H]2O)c2ccc(O)c(c2)-c2c(O)cc(O)cc21` yielded a pEC50 [1] of less than 4.00, a pEC50 [2] of less than 4.00 and an MBC [3] of 4 µg/mL (≈ 2.13 µM). The MIC [3] was 1 µg/mL (≈ 0.533 µM), the MBC [4] was 8 µg/mL (≈ 4.27 µM) and the MIC [4] was 8 µg/mL (≈ 4.27 µM). For the same molecule, the MBC [5] was 16 µg/mL (≈ 8.53 µM), the MIC [5] was 4 µg/mL (≈ 2.13 µM) and the MBC [6] was 256 µg/mL (≈ 137 µM). The MIC [6] was 8 µg/mL (≈ 4.27 µM), the MBC [8] was 256 µg/mL (≈ 137 µM) and the MIC [8] was 4 µg/mL (≈ 2.13 µM). For the same molecule, the MBC [9] was 8 µg/mL (≈ 4.27 µM), the MIC [9] was 4 µg/mL (≈ 2.13 µM) and the MBC [10] was 4 µg/mL (≈ 2.13 µM). For the same molecule, the MIC [10] was 1 µg/mL (≈ 0.533 µM), the pEC50 [11] was less than 4.00 and the pEC50 [12] was less than 4.00. For the same molecule, the pEC50 [13] was less than 4.00, the pEC50 [14] was less than 4.00 and the MBC [15] was 256 µg/mL (≈ 137 µM). It also gave an MIC [15] of 2 µg/mL (≈ 1.07 µM).

Work on `COC(=O)[C@@H]1NC(=O)[C@H]2NC(=O)[C@H](NC(=O)[C@@H]3NC(=O)[C@H]4NC(=O)[C@H](NC(=O)[C@H](n5cc(CO[C@H]6O[C@H](CO)[C@@H](O)[C@H](O)[C@H]6O)nn5)c5ccc(O)c(c5)Oc5cc4cc(O)c5C)[C@H](O)c4ccc(cc4)Oc4cc3cc(c4O)Oc3ccc(cc3)[C@H]2O)c2ccc(O)c(c2)-c2c(O)cc(O)cc21` yielded a pEC50 [1] of 4.80, a pEC50 [2] of 4.85 and an MBC [3] of 128 µg/mL (≈ 90.2 µM). The MIC [3] was 2 µg/mL (≈ 1.41 µM), the MBC [4] was 8 µg/mL (≈ 5.64 µM) and the MIC [4] was 2 µg/mL (≈ 1.41 µM). It also gave an MBC [5] of 4 µg/mL (≈ 2.82 µM), an MIC [5] of 4 µg/mL (≈ 2.82 µM) and an MBC [6] of 256 µg/mL (≈ 180 µM). For the same molecule, the MIC [6] was 8 µg/mL (≈ 5.64 µM), the inhibition [7] was “Active” and the MBC [8] was 256 µg/mL (≈ 180 µM). It also gave an MIC [8] of 4 µg/mL (≈ 2.82 µM), an MBC [9] of 4 µg/mL (≈ 2.82 µM) and an MIC [9] of 2 µg/mL (≈ 1.41 µM). For the same molecule, the MBC [10] was 256 µg/mL (≈ 180 µM), the MIC [10] was 2 µg/mL (≈ 1.41 µM) and the pEC50 [11] was 4.49. It also gave a pEC50 [12] of no more than 4.52, a pEC50 [13] of 4.48 and a pEC50 [14] of no more than 4.35. The MBC [15] was 256 µg/mL (≈ 180 µM) and the MIC [15] was 4 µg/mL (≈ 2.82 µM).

`COC(=O)[C@@H]1NC(=O)[C@H]2NC(=O)[C@H](NC(=O)[C@@H]3NC(=O)[C@H]4NC(=O)[C@H](NC(=O)[C@H](n5cc(CO[C@H]6O[C@H](COC(C)=O)[C@@H](OC(C)=O)[C@H](OC(C)=O)[C@H]6OC(C)=O)nn5)c5ccc(O)c(c5)Oc5cc4cc(O)c5C)[C@H](O)c4ccc(cc4)Oc4cc3cc(c4O)Oc3ccc(cc3)[C@H]2O)c2ccc(O)c(c2)-c2c(O)cc(O)cc21` gave a pEC50 [1] of 5.09, a pEC50 [2] of 5.02 and an MBC [3] of 8 µg/mL (≈ 5.04 µM). It also gave an MIC [3] of 4 µg/mL (≈ 2.52 µM), an MBC [4] of 16 µg/mL (≈ 10.1 µM) and an MIC [4] of 8 µg/mL (≈ 5.04 µM). For the same molecule, the MBC [5] was 16 µg/mL (≈ 10.1 µM), the MIC [5] was 16 µg/mL (≈ 10.1 µM) and the MBC [6] was 256 µg/mL (≈ 161 µM). The MIC [6] was 16 µg/mL (≈ 10.1 µM), the MBC [8] was 256 µg/mL (≈ 161 µM) and the MIC [8] was 8 µg/mL (≈ 5.04 µM). For the same molecule, the MBC [9] was 16 µg/mL (≈ 10.1 µM), the MIC [9] was 8 µg/mL (≈ 5.04 µM) and the MBC [10] was 8 µg/mL (≈ 5.04 µM). It also gave an MIC [10] of 4 µg/mL (≈ 2.52 µM), a pEC50 [11] of less than 4.00 and a pEC50 [12] of less than 4.00. It also gave a pEC50 [13] of less than 4.00, a pEC50 [14] of less than 4.00 and an MBC [15] of 256 µg/mL (≈ 161 µM). The MIC [15] was 8 µg/mL (≈ 5.04 µM).
